According to patent publication US5510478A, “2-arylamidothiazole derivatives with CNS activity” (American Home Products Corporation, priority 1994, dated 1996):
Read-outs that look alike come from different tables or passages of the source.

Tests used:
[1] = target: T1, M2 receptor (rat cerebellum) (Rattus norvegicus, UniProt P10980); assay: biochemical; conditions: read-out: M2 3H QNB binding in rat cerebellum, IC50
T1 sequence (P10980 1-466): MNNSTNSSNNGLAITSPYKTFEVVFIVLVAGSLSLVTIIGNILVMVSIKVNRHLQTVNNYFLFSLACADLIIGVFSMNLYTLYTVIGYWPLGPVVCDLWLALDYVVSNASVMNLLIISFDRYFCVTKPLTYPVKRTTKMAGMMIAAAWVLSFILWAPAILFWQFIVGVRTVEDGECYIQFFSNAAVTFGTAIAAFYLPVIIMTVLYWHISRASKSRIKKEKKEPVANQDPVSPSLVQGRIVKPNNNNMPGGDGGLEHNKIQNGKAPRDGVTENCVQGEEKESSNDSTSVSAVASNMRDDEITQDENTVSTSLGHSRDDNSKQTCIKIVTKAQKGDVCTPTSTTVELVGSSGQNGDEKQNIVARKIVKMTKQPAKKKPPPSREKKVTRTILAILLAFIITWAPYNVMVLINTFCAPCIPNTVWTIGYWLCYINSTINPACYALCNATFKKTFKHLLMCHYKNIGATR

[2] = test system: Male CFW mice (scopolamine-induced hyperactivity); assay: Reversal of scopolamine-induced hyperactivity in mouse swim tank; format: in vivo; conditions: ip, 5 min, 0.3 mg/kg scopolamine.HBr, swim distance, read-out: minimum effective dose (MED), reversing the hyperactivity of scopolamine treated animals
Protocol: The compound of Example 1 was also tested in accordance with the procedure of Symons et al, Soc. Neuroscience Abstracts 12:2, 897 (1986) in which Male CFW mice, 25 to 35 grams in weight are given the test compound in suitable vehicle plus 0.3 mg/kg scopoolamine.HBr in suitable vehicle, i.p.(3 groups of 12 animals each) or vehicle alone (1 group of 12 animals ) or vehicle plus scopolamine. HBr (1 group of 12 animals). The rates are placed in a swim tank, individually, containing 10 cm H2 O for a period of 5 minutes and the distance each animal swims is recorded.

[3] = test system: Sprague-Dawley male rats (scopolamine-disrupted performance); assay: Eight arm radial maze, reversal of scopolamine disrupted rat performance; format: in vivo; conditions: ip, scopolamine HBr 0.3 mg/kg s.c., test compound i.p., read-out: minimum effective dose (MED), reversal of scopolamine disrupted rat performance
Protocol: The compound of Example 1 was also tested in the eight arm radial maze test procedure in which Sprague-Dawley male rats at 85% of their free feeding weight are trained to obtain two food pellets from food cups placed at the ends of four of the eight arms radiating from a circular central area of the maze, in a five minute period. After training to a level of error (return to a previously entered arm is error) equal to or less than 2, the rats performance is disrupted with scopolamine HBr (0.3 mg/kg, s.c.) and test compound dosage (i.p.). The number of errors are then determined and compared with control receiving scopolamine alone.

[4] = target: T2, M1 receptor (rat cortex) (Rattus norvegicus, UniProt P08482); assay: M1 [3H]pirenzepine binding in rat cortex; conditions: for inhibition at 1 µM: read-out: M1 3H PZ binding in rat cortex at 1 μM, % inhibition
T2 construct: from tissue; host or cells: rat brain cortex
T2 sequence (P08482 1-460): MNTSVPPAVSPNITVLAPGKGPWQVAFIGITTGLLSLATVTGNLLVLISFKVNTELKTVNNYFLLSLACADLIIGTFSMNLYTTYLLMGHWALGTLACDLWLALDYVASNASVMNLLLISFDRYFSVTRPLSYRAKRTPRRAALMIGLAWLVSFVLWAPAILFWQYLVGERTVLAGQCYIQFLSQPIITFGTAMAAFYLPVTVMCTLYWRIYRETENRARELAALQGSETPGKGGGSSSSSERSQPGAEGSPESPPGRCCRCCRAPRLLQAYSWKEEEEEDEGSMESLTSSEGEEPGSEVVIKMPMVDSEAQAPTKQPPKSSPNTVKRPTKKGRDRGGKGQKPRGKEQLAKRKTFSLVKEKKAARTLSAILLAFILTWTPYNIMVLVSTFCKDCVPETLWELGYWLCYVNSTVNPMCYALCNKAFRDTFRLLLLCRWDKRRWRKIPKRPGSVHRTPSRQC

[5] = target: T3, dopamine D-2 receptor (Rattus norvegicus, UniProt P61169); assay: Dopamine D-2 receptor binding, 3H-spiroperidol, limbic brain tissue
T3 construct: from tissue; host or cells: limbic brain tissue (homogenate)
T3 sequence (P61169 whole entry): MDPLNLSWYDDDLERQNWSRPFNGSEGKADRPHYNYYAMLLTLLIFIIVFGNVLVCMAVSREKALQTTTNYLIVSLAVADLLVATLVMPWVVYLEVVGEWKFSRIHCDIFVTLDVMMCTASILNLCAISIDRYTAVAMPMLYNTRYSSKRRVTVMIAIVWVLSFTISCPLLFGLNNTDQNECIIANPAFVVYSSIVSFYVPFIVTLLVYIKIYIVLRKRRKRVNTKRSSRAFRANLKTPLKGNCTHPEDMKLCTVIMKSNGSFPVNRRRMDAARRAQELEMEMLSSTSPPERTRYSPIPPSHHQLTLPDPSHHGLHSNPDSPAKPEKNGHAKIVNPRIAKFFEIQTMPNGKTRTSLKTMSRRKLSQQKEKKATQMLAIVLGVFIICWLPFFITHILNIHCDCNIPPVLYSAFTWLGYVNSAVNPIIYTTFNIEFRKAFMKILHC
Protocol: High affinity for the dopamine D-2 receptor was established by the standard experimental test procedure of Fields, et al., Brain Res., 136, 578 (1977) and Yamamura et al., eds., Neurotransmitter Receptor Binding, Raven Press, N.Y. (1978) wherein homogenized limbic brain tissue is incubated with ^3 H-spiroperidol and various concentrations of test compound, filtered and washed and shaken with Hydrofluor scintillation cocktail (National Diagnostics) and counted in a Packard 460 CD scintillation counter.

[6] = test system: 5-HT1A serotonin receptor; assay: Serotonin 5-HT1A receptor binding, displacement of [3H]8-OHDPAT
Excerpt: High affinity for the serotonin 5-HT1A receptor was established by testing the claimed compound's ability to displace ^3 H!8-OHDPAT (dipropylaminotetralin) from the 5-HT1A serotonin receptor following the procedure of Hall et al., J. Neurochem. 44, 1685 (1985). […] The anxiolytic activity of buspirone is believed to be, at least partially, due to its 5-HT1A receptor affinity (Vander Maclen et al., Eur. J. Pharmacol. 1986, 129 (1-2) 133-130).

[7] = test system: patients with mild to moderate Alzheimer's Disease; conditions: cited from earlier work; for memory improvement in patients (in words): mild to moderate Alzheimer's Disease
[8] = in vivo; cited from earlier work
[9] = test system: 5-HT1A serotonin receptor; conditions: standard for anxiolytic activity; cited from earlier work

CN(C)CCOC(=O)c1csc(NC(=O)c2cc(C(C)(C)C)c(O)c(C(C)(C)C)c2)n1 [Example 1, 2-3.5.-Bis(1.1-dimethylethyl)-4-hydroxybenzoyl!amino!-4-thiazolecarboxylic acid 2-(dimethylamino)ethyl ester] gave an IC50 [1] of 3.4 µM, a minimal effective dose [2] of 3 mg/kg and a minimal effective dose [3] of 3 mg/kg. For the same compound, the IC50 ([4]; rat cortex, [3H]pirenzepine, read-out: M1 3H PZ binding in rat cortex, IC50) was 0.054 µM.

With CN(C)CCNC(=O)c1csc(NC(=O)c2cc(C(C)(C)C)c(O)c(C(C)(C)C)c2)n1 [Example 2, 2-3,5,-Bis(1.1-dimethylethyl)-4-hydroxybenzoyl!amino!-N-2-(dimethylamino)ethyl!-4-thiazolecarboxamide] the inhibition at 1 µM ([4]; 1 μM, rat cortex, [3H]pirenzepine) was 98.6%.

Compound CC(C)(C)c1cc(C(=O)Nc2nc(C(=O)NCCN3CC4CCC(CC4)C3)cs2)cc(C(C)(C)C)c1O [Example 3] has an inhibition at 1 µM [4] of 70.5%.

Work on CC(C)(C)c1cc(C(=O)Nc2nc(C(=O)OCCN3CC4CCC(CC4)C3)cs2)cc(C(C)(C)C)c1O [Example 4, 2-3.5-Bis(1.1-dimethylethyl)-4-hydroxybenzoyl!amino !-4-thiazolecarboxylic acid 2-(3-azabicyclo 3.2.2.!non-3-yl)ethyl ester] yielded an inhibition at 1 µM [4] of 90.6%.

CC(C)(C)c1cc(C(=O)Nc2nc(C(=O)NCCCN3CC4CCC(CC4)C3)cs2)cc(C(C)(C)C)c1O [Example 5, N-3-(3-Azabicyclo 3.2.2!non-3-yl)propyl-2-3.5-bis(1.1-dimethylethyl)-4-hydroxybenzoyl!amino!-4-thiazolecarboxamide] showed an inhibition at 1 µM [4] of 78%.

In the case of CC(C)(C)c1cc(C(=O)Nc2nc(C(=O)NCCCCN3CC4CCC(CC4)C3)cs2)cc(C(C)(C)C)c1O [Example 6, N-4-(3-Azabicyclo 3.2.21non-3-yl)butyl!-2-3,5-bis(1,1-dimethylethyl)-4-hydroxybenzoyl!amino!-4-thiazolecarboxamide], the inhibition at 1 µM [4] is reported as 86%.

CC(C)(C)c1cc(C(=O)Nc2nc(C(=O)NC3CN4CCC3CC4)cs2)cc(C(C)(C)C)c1O (stereo not drawn) [Example 7] gave an inhibition at 1 µM [4] of 104%.

With O=C(Nc1nc(C(=O)NC2CN3CCC2CC3)cs1)c1ccc(OCc2ccccc2)cc1 (stereo not drawn) [Example 8] the inhibition at 1 µM [4] was 85.8%.

With O=C(Nc1nc(C(=O)NCCCCN2CC3CCC(CC3)C2)cs1)c1ccc(OCc2ccccc2)cc1 [Example 9] the inhibition at 1 µM [4] was 62%.

For O=C(Nc1nc(C(=O)NCCCN2CC3CCC(CC3)C2)cs1)c1ccc(O)cc1 [Example 10, N-3-(3- Azabicyclo 3.2.2!non-3-yl)propyl-2-4-hydroxybenzoyl!amino-4-thiazolecarboxamide], the inhibition at 1 µM [4] was 58.7%.

O=C(Nc1nc(C(=O)NCCCCN2CC3CCC(CC3)C2)cs1)c1ccc(O)cc1 [Example 11, N-4-(3-Azabicyclo 3.2.2!non-3-yl)butyl-2-4-hydroxybenzoyl!amino!-4-thiazolecarboxamide] showed an inhibition at 1 µM [4] of 63.9%.

For O=C(Cc1csc(NC(=O)c2ccc(F)cc2)n1)NCCCCN1CC2CCC(CC2)C1 [Example 12, N-4-(3-Azabicyclo 3.2.2!non-3-yl)butyl-2-(4-fluorobenzoyl)amino!-4-thiazoleacetamide], the inhibition at 1 µM [4] was 57%.

With COc1ccccc1N1CCN(CCCOC(=O)Cc2csc(NC(=O)c3ccc(F)cc3)n2)CC1 [Example 13, 2-(4-Fluorobenzoyl)amino!-4-thiazoleacetic acid 3-4-(2-methoxyphenyl)-1-piperazinyl!propyl ester] the inhibition at 1 µM [5] was 81% and the “5-HT1A Binding (% Inhibition at 1 μM)” value [6] was 100%.

With COc1ccccc1N1CCN(CCCOC(=O)Cc2csc(NC(=O)c3cc(C(C)(C)C)c(O)c(C(C)(C)C)c3)n2)CC1 [Example 14, 2-3,5-Bis(1,1-dimethylethyl)-4-hydroxyphenyl!carbonyl!amino!-4-thiazoleacetic acid 3-4-(2-methoxyphenyl)-1-piperazinyl!propyl ester] the inhibition at 1 µM [5] was 91% and the “5-HT1A Binding (% Inhibition at 1 μM)” value [6] was 89%.

With COc1ccccc1N1CCN(CCOC(=O)Cc2csc(NC(=O)c3cc(C(C)(C)C)c(O)c(C(C)(C)C)c3)n2)CC1 [Example 15] the inhibition at 1 µM [5] was 51%.

Work on O=C(Cc1csc(NC(=O)c2ccc(F)cc2)n1)OCCN1CCN(c2ncccn2)CC1 [Example 16, 2-(4-Fluorobenzoyl)amino!-4-thiazoleacetic acid 2-4-(2-pyrimidinyl)-1-piperazinyl!ethyl ester] yielded an inhibition at 1 µM [5] of 34%.

For CC(C)(C)c1cc(C(=O)Nc2nc(CC(=O)NCCN3CCN(c4ncccn4)CC3)cs2)cc(C(C)(C)C)c1O [Example 17], the inhibition at 0.1 µM ([5]; 0.1 μM) was 5%.

For COC(=O)C1=CCCN(C)C1 [arecoline], the “memory improvement in patients (in words)” value [7] is given as “memory improvement” and the “half-life (in words)” value [8] is given as “short half-life”.

In the case of O=C1CC2(CCCC2)CC(=O)N1CCCCN1CCN(c2ncccn2)CC1 [buspirone], the “5-HT1A receptor affinity (in words)” value [9] is given as “potent affinity”.

In the case of Nc1c2c(nc3ccccc13)CCCC2 [tacrine], the “adverse side effects (in words)” value ([7]; especially at the higher doses where it is most effective) is given as “adverse side effects” and the “memory improvement in patients (in words)” value [7] is given as “improvement in memory”.
